The target in one assay is Mcl-1 protein (Homo sapiens, UniProt Q07820). Nature of the assay: Inhibition of Mcl-1 by the fluorescence polarisation technique (Method 1 or Method 2). Type of assay: binding. The conditions noted are these: for IC50: fluorescence polarisation, Fluorescein labelled ligand, Method 1 (not underlined) or Method 2 (underlined), read-out: IC50 (μM) Mcl-1 FP. The gist of the method: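 Binding measured by FP, with Mcl-1 protein and fluorescein-labelled ligand mixed with compounds in an 11-point series at 5% final DMSO. Method 2 used 10 nM each of protein and ligand in phosphate buffer (20 mM Na2HPO4, 1 mM EDTA, 50 mM NaCl, pH 7.4); Method 1 used 5 nM protein, 1 nM ligand in HEPES buffer (10 mM HEPES, 150 mM NaCl, 0.05% Tween 20, pH 7.4).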
Mcl-1 protein, sequence (Q07820 whole entry): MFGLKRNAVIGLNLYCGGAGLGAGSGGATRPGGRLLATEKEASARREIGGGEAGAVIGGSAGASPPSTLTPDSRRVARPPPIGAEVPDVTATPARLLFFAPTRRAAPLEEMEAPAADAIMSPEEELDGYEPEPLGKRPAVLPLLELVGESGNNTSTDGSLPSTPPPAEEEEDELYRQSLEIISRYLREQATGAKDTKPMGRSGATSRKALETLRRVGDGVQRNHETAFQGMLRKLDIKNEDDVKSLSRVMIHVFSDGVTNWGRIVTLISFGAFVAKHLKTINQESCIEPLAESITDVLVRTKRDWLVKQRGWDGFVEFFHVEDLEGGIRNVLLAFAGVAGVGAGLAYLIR
A general note: Polarisation of emitted light reports the rotation of a fluorescent probe.

Assay [1] has as its system H929 multiple myeloma tumour line. Nature of the assay: In vitro cytotoxicity, MTT assay, 48 hours. Type of assay: cell-based. The conditions noted are these: H929 cells, 48 hours exposure, cell viability. Here is the method:
The cytotoxicity studies were carried out on the H929 multiple myeloma tumour line.
The cells are distributed onto microplates and exposed to the test compounds for 48 hours.

The mark [2] stands for this setting: partial inhibitors, @ 10 μM test compound.

Broadly, the IC50 is the concentration that inhibits the measured activity by half. Take `Cc1c(-c2c(-c3ccsc3)sc3ncnc(NC(Cc4ccccn4)C(=O)O)c23)ccc(OCCN2CCOCC2)c1Cl` [Example 36, N-[(5Sa)-5-{3-chloro-2-methyl-4-[2-(morpholin-4-yl)ethoxy]phenyl}-6-(thiophen-3-yl)thieno[2,3-d]pyrimidin-4-yl]-3-pyridin-2-yl-D-alanine]: the IC50 on Mcl-1 protein is 0.086 µM; in assay [1] (Homo sapiens, NCI-H929), above 7500 nM.
On the same counts, the results for `CC#Cc1sc2ncnc(NC(Cc3ccccc3OC)C(=O)O)c2c1-c1ccc(OCCN2CCN(C)CC2)c(Cl)c1C` [Example 39, N-[(5Sa)-5-{3-chloro-2-methyl-4-[2-(4-methylpiperazin-1-yl)ethoxy]phenyl}-6-(prop-1-yn-1-yl)thieno[2,3-d]pyrimidin-4-yl]-2-methoxy-D-phenylalanine] are 0.025 µM and 401 nM.
For the compound `CC#Cc1sc2ncnc(NC(Cc3ccccc3OCc3ccnc(OCC(F)(F)F)n3)C(=O)O)c2c1-c1ccc(OCCN(C)C)c(Cl)c1C` [Example 48, N-[(5Sa)-5-{3-chloro-4-[2-(dimethylamino)ethoxy]-2-methylphenyl}-6-(prop-1-yn-1-yl)thieno[2,3-d]pyrimidin-4-yl]-2-{[2-(2,2,2-trifluoroethoxy)pyrimidin-4-yl]methoxy}-D-phenylalanine], the half-maximal inhibitory concentration (IC50) on Mcl-1 protein amounted to 0.007 µM; in assay [1] (Homo sapiens, NCI-H929), 16.1 nM.
For `COc1ccccc1CC(Nc1ncnc2sc(-c3ccc(F)cc3)c(-c3ccc(OCCN4CCN(C)CC4)c(Cl)c3C)c12)C(=O)O` [Example 1, N-[(5Sa)-5-{3-chloro-2-methyl-4-[2-(4-methylpiperazin-1-yl)ethoxy]phenyl}-6-(4-fluorophenyl)thieno[2,3-d]pyrimidin-4-yl]-2-methoxy-D-phenylalanine], in that order: 0.127 µM and above 600 nM.
With `Cc1c(-c2c(-c3ccc(F)o3)sc3ncnc(NC(Cc4ccccc4OCC(F)(F)F)C(=O)O)c23)ccc(OCCN2CCN(C)CC2)c1Cl` [Example 17, N-[(5Sa)-5-{3-chloro-2-methyl-4-[2-(4-methylpiperazin-1-yl)ethoxy]phenyl}-6-(5-fluorofuran-2-yl)thieno[2,3-d]pyrimidin-4-yl]-2-(2,2,2-trifluoroethoxy)-D-phenylalanine], the IC50 on Mcl-1 protein is 0.057 µM; in assay [1] (Homo sapiens, NCI-H929), 294 nM.
As to `Cc1c(-c2c(-c3ccc(F)o3)sc3ncnc(NC(Cc4ccccc4O)C(=O)O)c23)ccc(OCCN(C)C)c1Cl` [Example 28, N-[(5Sa)-5-{3-chloro-4-[2-(dimethylamino)ethoxy]-2-methylphenyl}-6-(5-fluorofuran-2-yl)thieno[2,3-d]pyrimidin-4-yl]-2-hydroxy-D-phenylalanine], the half-inhibitory concentration (IC50) on Mcl-1 protein is 0.116 µM; in assay [1] (Homo sapiens, NCI-H929) it was above 1880 nM.
On the same counts, the results for `CC#Cc1sc2ncnc(NC(Cc3ccccc3OCc3ccnn3CC(F)(F)F)C(=O)O)c2c1-c1ccc(OCCN(C)C)c(Cl)c1C` [Example 46, N-[(5Sa)-5-{3-chloro-4-[2-(dimethylamino)ethoxy]-2-methylphenyl}-6-(prop-1-yn-1-yl)thieno[2,3-d]pyrimidin-4-yl]-2-{[1-(2,2,2-trifluoroethyl)-1H-pyrazol-5-yl]methoxy}-D-phenylalanine] are 0.024 µM and 166 nM.
For `CC#Cc1sc2ncnc(NC(Cc3ccccc3OCc3ccnn3CC(F)(F)F)C(=O)O)c2c1-c1ccc(OCCN2CCN(C)CC2)c(Cl)c1C` [Example 42, N-[(5Sa)-5-{3-chloro-2-methyl-4-[2-(4-methylpiperazin-1-yl)ethoxy]phenyl}-6-(prop-1-yn-1-yl)thieno[2,3-d]pyrimidin-4-yl]-2-{[1-(2,2,2-trifluoroethyl)-1H-pyrazol-5-yl]methoxy}-D-phenylalanine], in that order: 0.01 µM and 61 nM.
For `COC(=O)c1oc(-c2sc3ncnc(NC(Cc4ccccc4OC)C(=O)O)c3c2-c2ccc(OCCN3CCN(C)CC3)c(Cl)c2C)cc1C` [Example 65, N-((5Sa)-5-{3-chloro-2-methyl-4-[2-(4-methylpiperazin-1-yl)ethoxy]phenyl}-6-[5-(methoxycarbonyl)-4-methylfuran-2-yl]thieno[2,3-d]pyrimidin-4-yl)-2-methoxy-D-phenylalanine], in that order: 0.345 µM and at least 2780 nM.
For `COC(=O)c1oc(-c2sc3ncnc(NC(Cc4ccccc4OC)C(=O)O)c3c2-c2ccc(OCCN3CCN(C)CC3)c(Cl)c2C)cc1C` [Example 66, N-((5Ra)-5-{3-chloro-2-methyl-4-[2-(4-methylpiperazin-1-yl)ethoxy]phenyl}-6-[5-(methoxycarbonyl)-4-methylfuran-2-yl]thieno[2,3-d]pyrimidin-4-yl)-2-methoxy-D-phenylalanine], the “percentage fluorescence polarisation inhibition, Mcl-1 FP” value at Mcl-1 protein (setting [2]) came to 36.9% @ 10 μM. This compound registered an IC50 in assay [1] above 3750 nM.
Turning to `Cc1c(-c2c(-c3ccco3)sc3ncnc(NC(Cc4ccccc4OCc4ccccn4)C(=O)O)c23)ccc(OCCN2CCN(C)CC2)c1Cl` [Example 13, N-[(5Ra)-5-{3-chloro-2-methyl-4-[2-(4-methylpiperazin-1-yl)ethoxy]phenyl}-6-(furan-2-yl)thieno[2,3-d]pyrimidin-4-yl]-2-(pyridin-2-ylmethoxy)-D-phenylalanine], the “percentage fluorescence polarisation inhibition, Mcl-1 FP” value on Mcl-1 protein (setting [2]) is recorded as 58% @ 10 μM. In assay [1], the half-inhibitory concentration (IC50) is above 3750 nM.
`CCCCn1nccc1COc1ccccc1C[C@@H](Nc1ncnc2sc(-c3ccc(F)o3)c(-c3ccc(OCCN4CCN(C)CC4)c(Cl)c3C)c12)C(=O)O` [Example 23, 2-[(1-butyl-1H-pyrazol-5-yl)methoxy]-N-[(5Ra)-5-{3-chloro-2-methyl-4-[2-(4-methylpiperazin-1-yl)ethoxy]phenyl}-6-(5-fluorofuran-2-yl)thieno[2,3-d]pyrimidin-4-yl]-D-phenylalanine]: on Mcl-1 protein (partial inhibitors, @ 1 μM test compound), the “percentage fluorescence polarisation inhibition, Mcl-1 FP” value was 41.27% @ 1 μM. In addition, in assay [1], the IC50 was above 600 nM.
In the case of `CC#Cc1sc2ncnc(NC(Cc3ccccc3OCc3ccnc(CCOC)n3)C(=O)O)c2c1-c1ccc(OCCN2CCN(C)CC2)c(Cl)c1C` [Example 41, N-[(5Sa)-5-{3-chloro-2-methyl-4-[2-(4-methylpiperazin-1-yl)ethoxy]phenyl}-6-(prop-1-yn-1-yl)thieno[2,3-d]pyrimidin-4-yl]-2-{[2-(2-methoxyethyl)pyrimidin-4-yl]methoxy}-D-phenylalanine], the IC50 amounted to 0.006 µM at Mcl-1 protein and 7.38 nM in assay [1] (Homo sapiens, NCI-H929).
The term inhibition denotes how much of the control response was suppressed. In the case of `Cc1c(-c2c(-c3ccco3)sc3ncnc(N[C@H](Cc4ccccc4Cl)C(=O)O)c23)ccc(OCCN2CCN(C)CC2)c1Cl` (single isomer, unassigned) [Example 10, 2-chloro-N-[5-{3-chloro-2-methyl-4-[2-(4-methylpiperazin-1-yl)ethoxy]phenyl}-6-(furan-2-yl)thieno[2,3-d]pyrimidin-4-yl]-D-phenylalanine], the inhibition at 3.3 µM on Mcl-1 protein (partial inhibitors, @ 3.3 μM test compound, read-out: percentage fluorescence polarisation inhibition, Mcl-1 FP) came to 72.8%. In addition, the IC50 in assay [1] (Homo sapiens, NCI-H929) was above 3750 nM.
Regarding `Cc1c(-c2c(-c3ccsc3)sc3ncnc(NC(Cc4ccccn4)C(=O)O)c23)ccc(OCCN2CCN(C)CC2)c1Cl` [Example 29, N-[(5Sa)-5-{3-chloro-2-methyl-4-[2-(4-methylpiperazin-1-yl)ethoxy]phenyl}-6-(thiophen-3-yl)thieno[2,3-d]pyrimidin-4-yl]-3-pyridin-2-yl-D-alanine], the half-maximal inhibitory concentration (IC50) at Mcl-1 protein came to 0.063 µM; in assay [1] (Homo sapiens, NCI-H929), 2520 nM.
Consider `Cc1c(-c2c(-c3ccco3)sc3ncnc(N[C@H](Cc4ccccc4C(N)=O)C(=O)O)c23)ccc(OCCN2CCN(C)CC2)c1Cl` [Example 11, 2-carbamoyl-N-[5-{3-chloro-2-methyl-4-[2-(4-methylpiperazin-1-yl)ethoxy]phenyl}-6-(furan-2-yl)thieno[2,3-d]pyrimidin-4-yl]-D-phenylalanine], for which the inhibition at 10 µM at Mcl-1 protein (partial inhibitors, @ 10 μM test compound, read-out: percentage fluorescence polarisation inhibition, Mcl-1 FP) was found to be 35.5%. This compound came in with an IC50 in assay [1] (Homo sapiens, NCI-H929) above 3750 nM.
On to `COc1ccccc1C[C@@H](Nc1ncnc2sc(-c3ccc(F)o3)c(-c3ccc(OCCN4CCN(C)CC4)c(Cl)c3C)c12)C(=O)O` [Example 15, N-[(5Ra)-5-{3-chloro-2-methyl-4-[2-(4-methylpiperazin-1-yl)ethoxy]phenyl}-6-(5-fluorofuran-2-yl)thieno[2,3-d]pyrimidin-4-yl]-2-methoxy-D-phenylalanine], for which, at Mcl-1 protein (setting [2]), the “percentage fluorescence polarisation inhibition, Mcl-1 FP” value stood at 40.05% @ 10 μM. Also, in assay [1], the IC50 was above 3750 nM.
`Cc1c(-c2c(-c3ccc(F)o3)sc3ncnc(NC(Cc4ccccc4O)C(=O)O)c23)ccc(OCCN2CCN(C)CC2)c1Cl` [Example 14, N-[(5Sa)-5-{3-chloro-2-methyl-4-[2-(4-methylpiperazin-1-yl)ethoxy]phenyl}-6-(5-fluorofuran-2-yl)thieno[2,3-d]pyrimidin-4-yl]-2-hydroxy-D-phenylalanine]: the IC50 on Mcl-1 protein came out at 0.038 µM; in assay [1] (Homo sapiens, NCI-H929), 721 nM.
`CCc1sc2ncnc(N[C@H](Cc3ccccc3OCCN(C)C)C(=O)O)c2c1-c1cccc(Cl)c1C` [Example 155, N-[(5Ra)-5-(3-chloro-2-methylphenyl)-6-ethylthieno[2,3-d]pyrimidin-4-yl]-2-[2-(dimethylamino)ethoxy]-D-phenylalanine]: at Mcl-1 protein (partial inhibitors, @ 50 μM test compound), the “percentage fluorescence polarisation inhibition, Mcl-1 FP” value is recorded as 63.15% @ 50 μM.
Regarding `CCc1sc2ncnc(N[C@@H](Cc3ccccc3)C(=O)O)c2c1-c1ccc(OCCN(C)C)c(Cl)c1C` [Example 58, N-((5Ra)-5-{3-chloro-4-[2-(dimethylamino)ethoxy]-2-methylphenyl}-6-ethylthieno[2,3-d]pyrimidin-4-yl)-L-phenylalanine], the “percentage fluorescence polarisation inhibition, Mcl-1 FP” value at Mcl-1 protein (setting [2]) was 52.8% @ 10 μM.
